{"source": "paper PMC10978029", "about": "(Virulence, 2024)", "key": {"STM0435 [1]": {"target": "STM0435 (Salmonella enterica, UniProt Q8ZRC9, D138H/R137H)", "experiment": "biochemical"}, "STM0435 [2]": {"target": "STM0435 (Salmonella enterica, UniProt Q8ZRC9, D138H/R137H/R33H)", "experiment": "biochemical"}, "STM0435 [3]": {"target": "T1, STM0435 (Salmonella enterica, UniProt Q8ZRC9)", "T1 sequence (Q8ZRC9 1-163)": "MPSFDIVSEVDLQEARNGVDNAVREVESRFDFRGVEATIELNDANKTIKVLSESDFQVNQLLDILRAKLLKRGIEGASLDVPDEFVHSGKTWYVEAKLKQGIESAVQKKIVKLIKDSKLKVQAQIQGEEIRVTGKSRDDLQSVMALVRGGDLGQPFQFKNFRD", "experiment": "SPR", "assay_type": "binding"}, "STM0435 [4]": {"target": "STM0435 (Salmonella enterica, UniProt Q8ZRC9, R33H)", "experiment": "biochemical"}}}
{"smiles": "Nc1nc2c(ncn2[C@@H]2O[C@@H]3CO[P@](=O)(O)O[C@H]4[C@@H](O)[C@H](n5cnc6c(=O)[nH]c(N)nc65)O[C@@H]4CO[P@](=O)(O)O[C@H]3[C@H]2O)c(=O)[nH]1", "note": "[c-di-GMP]", "values": [{"measurement": "Kd", "setting": "STM0435 [1]", "result": 25.3, "unit": "µM"}, {"measurement": "Kd", "setting": "STM0435 [2]", "result": 33.2, "unit": "µM"}, {"measurement": "Kd", "setting": "STM0435 [3]", "result": 8.38, "unit": "µM"}, {"measurement": "Kd", "setting": "STM0435 [4]", "result": 15.2, "unit": "µM"}]}
